Results on four compounds are retold here after patent US20250034216A1, “STEREOSELECTIVE COVALENT LIGANDS FOR ONCOGENIC AND IMMUNOLOGICAL PROTEINS” (The Scripps Research Institute, priority 2021, published 2025).

SMILES strings stand for the structures.

Experiment in all cases: IA-DTB cysteine engagement
Holding throughout (type): binding
Holding throughout (details): 22Rv1 cells, 20 μM probe, 1 h, relative to DMSO

One assay concerns the target T1, COX6B1_C54 (Homo sapiens, UniProt P14854).
T1 construct: endogenous in cells; host or cells: 22Rv1
Put shortly: (§1)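 Cells were treated in situ with electrophilic probes, then lysed, and the lysates (2 mg/mL protein) were labeled with IA-DTB for 1 h at ambient temperature. After reduction, alkylation and trypsin digestion, labeled peptides were streptavidin-enriched, TMT-labeled and fractionated. Engagement ratios are probe vs DMSO reporter intensities, averaged across replicates.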

The target of another assay is T2, KRTCAP3_C197 (Homo sapiens, UniProt Q53RY4).
T2 construct: endogenous in cells; host or cells: 22Rv1
T2 sequence (Q53RY4 1-240): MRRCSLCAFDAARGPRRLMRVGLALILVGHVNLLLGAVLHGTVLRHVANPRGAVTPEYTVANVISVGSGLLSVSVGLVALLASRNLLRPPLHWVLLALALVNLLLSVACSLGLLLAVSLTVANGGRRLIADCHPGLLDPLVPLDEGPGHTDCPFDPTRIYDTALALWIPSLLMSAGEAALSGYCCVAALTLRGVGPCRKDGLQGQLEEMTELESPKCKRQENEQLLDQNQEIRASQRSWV
The gist of the method:
as §1

In a further assay the target is T3, CTC1_C584 (Homo sapiens, UniProt Q2NKJ3).
T3 construct: endogenous in cells; host or cells: 22Rv1
T3 sequence (Q2NKJ3 1-1217): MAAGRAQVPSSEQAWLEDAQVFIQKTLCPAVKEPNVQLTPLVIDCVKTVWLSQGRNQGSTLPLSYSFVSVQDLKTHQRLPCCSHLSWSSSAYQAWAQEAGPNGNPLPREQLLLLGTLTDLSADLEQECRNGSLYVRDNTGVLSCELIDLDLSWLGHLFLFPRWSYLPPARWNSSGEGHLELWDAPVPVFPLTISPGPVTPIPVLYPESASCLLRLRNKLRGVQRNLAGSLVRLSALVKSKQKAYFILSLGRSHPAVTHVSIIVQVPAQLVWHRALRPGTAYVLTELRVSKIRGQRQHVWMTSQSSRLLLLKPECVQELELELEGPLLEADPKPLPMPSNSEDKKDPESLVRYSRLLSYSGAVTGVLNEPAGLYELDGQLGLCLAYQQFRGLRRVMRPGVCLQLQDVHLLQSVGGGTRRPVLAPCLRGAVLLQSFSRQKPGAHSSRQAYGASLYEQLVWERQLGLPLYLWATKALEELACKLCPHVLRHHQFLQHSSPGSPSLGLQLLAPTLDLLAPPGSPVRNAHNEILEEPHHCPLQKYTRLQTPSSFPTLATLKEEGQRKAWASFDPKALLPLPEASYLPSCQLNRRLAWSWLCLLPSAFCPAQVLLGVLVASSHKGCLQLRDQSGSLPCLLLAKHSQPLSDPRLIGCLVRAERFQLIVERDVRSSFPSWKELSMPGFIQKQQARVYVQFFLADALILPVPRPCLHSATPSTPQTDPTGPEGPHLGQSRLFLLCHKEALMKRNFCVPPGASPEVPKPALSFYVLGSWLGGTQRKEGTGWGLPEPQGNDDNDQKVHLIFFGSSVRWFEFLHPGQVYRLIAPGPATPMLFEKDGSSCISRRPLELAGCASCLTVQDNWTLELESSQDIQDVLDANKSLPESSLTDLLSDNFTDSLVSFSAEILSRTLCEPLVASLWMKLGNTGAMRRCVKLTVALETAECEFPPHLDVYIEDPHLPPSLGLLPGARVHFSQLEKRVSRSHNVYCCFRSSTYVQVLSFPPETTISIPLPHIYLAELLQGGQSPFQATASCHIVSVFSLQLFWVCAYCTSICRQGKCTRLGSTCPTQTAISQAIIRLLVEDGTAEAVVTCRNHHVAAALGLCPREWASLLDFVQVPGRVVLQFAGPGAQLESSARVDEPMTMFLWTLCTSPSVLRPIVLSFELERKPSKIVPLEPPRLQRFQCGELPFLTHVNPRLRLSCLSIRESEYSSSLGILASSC
The gist of the method: as §1

For the next assay, the target named is T4, ZFC3H1_C1778 (Homo sapiens, UniProt O60293).
T4 construct: endogenous in cells; host or cells: 22Rv1
Put shortly: as §1

T4 sequence (O60293 whole entry): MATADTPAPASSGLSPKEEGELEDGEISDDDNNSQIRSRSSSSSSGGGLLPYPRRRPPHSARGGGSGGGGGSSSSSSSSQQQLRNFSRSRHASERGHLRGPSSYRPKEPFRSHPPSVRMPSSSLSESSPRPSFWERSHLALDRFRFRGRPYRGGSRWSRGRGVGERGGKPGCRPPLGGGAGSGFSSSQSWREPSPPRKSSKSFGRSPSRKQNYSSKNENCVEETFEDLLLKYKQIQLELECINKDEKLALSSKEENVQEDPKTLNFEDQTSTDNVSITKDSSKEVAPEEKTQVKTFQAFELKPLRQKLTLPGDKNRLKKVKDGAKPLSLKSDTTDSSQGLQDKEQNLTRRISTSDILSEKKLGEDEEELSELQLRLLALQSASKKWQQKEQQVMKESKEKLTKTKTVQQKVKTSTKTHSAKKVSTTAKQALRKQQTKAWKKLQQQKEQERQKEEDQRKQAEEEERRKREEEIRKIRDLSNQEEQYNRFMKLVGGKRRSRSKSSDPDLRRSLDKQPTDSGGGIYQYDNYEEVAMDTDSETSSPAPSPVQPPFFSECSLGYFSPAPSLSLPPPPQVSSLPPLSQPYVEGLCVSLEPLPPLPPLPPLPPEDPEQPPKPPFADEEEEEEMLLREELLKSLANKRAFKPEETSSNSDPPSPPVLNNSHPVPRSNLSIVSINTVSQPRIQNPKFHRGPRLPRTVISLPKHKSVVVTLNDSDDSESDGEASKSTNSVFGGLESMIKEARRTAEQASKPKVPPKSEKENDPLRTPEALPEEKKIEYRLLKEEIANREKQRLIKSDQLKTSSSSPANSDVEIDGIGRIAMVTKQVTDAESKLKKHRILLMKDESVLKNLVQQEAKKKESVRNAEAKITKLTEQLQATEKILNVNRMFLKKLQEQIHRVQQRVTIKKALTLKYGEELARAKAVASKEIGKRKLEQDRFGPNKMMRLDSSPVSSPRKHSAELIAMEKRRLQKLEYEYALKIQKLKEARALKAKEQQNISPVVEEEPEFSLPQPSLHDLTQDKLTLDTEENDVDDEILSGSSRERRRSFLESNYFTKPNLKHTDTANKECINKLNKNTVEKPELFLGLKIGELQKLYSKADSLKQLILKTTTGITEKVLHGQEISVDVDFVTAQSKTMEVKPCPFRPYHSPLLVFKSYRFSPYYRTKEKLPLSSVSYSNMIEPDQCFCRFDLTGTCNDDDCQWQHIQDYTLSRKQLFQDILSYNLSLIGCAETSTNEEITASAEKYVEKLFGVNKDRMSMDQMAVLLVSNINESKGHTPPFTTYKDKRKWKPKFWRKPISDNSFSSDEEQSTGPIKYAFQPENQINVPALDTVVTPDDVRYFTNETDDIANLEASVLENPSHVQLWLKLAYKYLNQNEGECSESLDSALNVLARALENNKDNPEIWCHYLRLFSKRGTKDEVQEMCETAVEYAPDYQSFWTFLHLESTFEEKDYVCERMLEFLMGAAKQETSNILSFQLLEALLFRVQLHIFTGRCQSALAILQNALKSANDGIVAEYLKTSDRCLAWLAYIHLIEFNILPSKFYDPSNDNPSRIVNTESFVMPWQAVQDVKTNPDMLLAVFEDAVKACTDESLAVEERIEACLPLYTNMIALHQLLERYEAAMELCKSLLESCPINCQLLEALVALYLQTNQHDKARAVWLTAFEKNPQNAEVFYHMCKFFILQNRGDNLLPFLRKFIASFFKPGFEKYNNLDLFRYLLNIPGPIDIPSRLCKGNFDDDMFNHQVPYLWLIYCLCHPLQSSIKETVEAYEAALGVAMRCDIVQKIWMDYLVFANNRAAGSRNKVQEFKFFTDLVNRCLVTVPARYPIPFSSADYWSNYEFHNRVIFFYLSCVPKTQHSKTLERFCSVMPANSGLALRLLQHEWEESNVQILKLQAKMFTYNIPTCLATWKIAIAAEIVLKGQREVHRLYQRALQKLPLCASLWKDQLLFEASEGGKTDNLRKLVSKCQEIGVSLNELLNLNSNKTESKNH
T1 sequence (P14854 whole entry): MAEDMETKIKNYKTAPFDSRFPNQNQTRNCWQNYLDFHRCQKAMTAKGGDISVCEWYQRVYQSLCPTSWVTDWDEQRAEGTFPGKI

As for `C=CC(=O)N1C[C@@H](c2ccc(Br)cc2)[C@H]1C(=O)Nc1cccc2cccnc12` [MY-1A, (2S,3R)-1-acryloyl-3-(4-bromophenyl)-N-(quinolin-8-yl)azetidine-2-carboxamide], the “% engagement COX6B1_C54” value on COX6B1_C54 was determined as 66.5%. The “% engagement KRTCAP3_C197” value on KRTCAP3_C197 was determined as 61%. Besides, the “% engagement CTC1_C584” value at CTC1_C584 worked out at 20.25%. The “% engagement ZFC3H1_C1778” value on ZFC3H1_C1778 is recorded as 70.75%.

With `C=CC(=O)N1C[C@H](c2ccc(Br)cc2)[C@@H]1C(=O)Nc1cccc2cccnc12` [MY-1B, (2R,3S)-1-acryloyl-3-(4-bromophenyl)-N-(quinolin-8-yl)azetidine-2-carboxamide], the “% engagement COX6B1_C54” value at COX6B1_C54 is listed as 56%. In addition, the “% engagement KRTCAP3_C197” value on KRTCAP3_C197 worked out at 69.5%. The “% engagement CTC1_C584” value at CTC1_C584 was 37.25%. In addition, the “% engagement ZFC3H1_C1778” value on ZFC3H1_C1778 came to 7%.

As for `C=CC(=O)N1C[C@H](c2ccc(Br)cc2)[C@H]1C(=O)Nc1cccc2cccnc12` [MY-3A, (2S,3S)-1-acryloyl-3-(4-bromophenyl)-N-(quinolin-8-yl)azetidine-2-carboxamide], the “% engagement COX6B1_C54” value at COX6B1_C54 was determined as 33.5%. Moreover, the “% engagement KRTCAP3_C197” value on KRTCAP3_C197 was 31%. For the same compound, at CTC1_C584, the “% engagement CTC1_C584” value worked out at 23.5%. Besides, the “% engagement ZFC3H1_C1778” value on ZFC3H1_C1778 is given as 47.75%.

As to `C=CC(=O)N1C[C@H](c2ccc(Br)cc2)[C@H]1C(=O)Nc1cccc2cccnc12` [MY-3B, (2S,3S)-1-acryloyl-3-(4-bromophenyl)-N-(quinolin-8-yl)azetidine-2-carboxamide], on COX6B1_C54, the “% engagement COX6B1_C54” value worked out at 36.5%. The “% engagement KRTCAP3_C197” value on KRTCAP3_C197 came out at 54%. Moreover, on CTC1_C584, the “% engagement CTC1_C584” value turned out to be 66.25%. At ZFC3H1_C1778, the “% engagement ZFC3H1_C1778” value is listed as −22.75%.
